The values below come from patent US20230160016A1, “METHODS OF SELECTING A TREATMENT FOR CANCER PATIENTS” (NOVARTIS AG, priority 2017, published 2023).

For this test, the system named is HR-positive, HER2-negative, advanced breast cancer. In words: MONALEESA-2: PFS subgroup analysis by 2-gene signature (CDKN2A and E2F3) score. The note with it: for Events: PFS events, median cut-off, both arms plus letrozole; for HR Across ARMCD: PFS, ribociclib arm vs PBO arm, both plus letrozole. It is filed as in vivo, human. The protocol:
The patient population consisted of postmenopausal women with HR-positive, HER2-negative, advanced breast cancer, who had previously received no prior therapy for their advanced breast cancer.
Arm A: Ribociclib (600 mg once daily, days 1-21 of a 28-day cycle)+letrozole (2.5 mg once daily, days 1-28 of a 28-day cycle).
Arm B: Placebo (once daily, days 1-21 of a 28-day cycle)+letrozole (2.5 mg once daily days 1-28 of a 28-day cycle continuously).
PFS was defined as the time from the date of randomization to the date of first documented disease progression or death due to any cause. Discontinuation for non-RECIST progression was not counted as a PFS event. If a patient started other anti-neoplastic therapy or had two or more missing tumour assessments, PFS was censored at the last adequate tumour assessment, regardless of subsequent events.
A Cox Proportional Hazards model was fitted with treatment, liver/lung metastasis which is the study stratification factor, effects of the 16 genes, including CCNA2, CCND1, CCND2, CCND3, CCNE1, CDK2, CDK4, CDK6, CDKN1A, CDKN2A, CDKN2B, CDKN2C, E2F1, E2F3, RB1, and TFDP1, and gene by treatment interactions. […] A set of genes (CDKN2A and E2F3) with significant gene by treatment interactions in the model were identified through backward model selection. Signature scores of all samples were computed as the weighted sum of the gene expression values, where weights were the regression coefficients of respective gene by treatment interactions in the Cox Proportional Hazards model. Patients were classified into high and low subgroups using median signature score as the cut-off. Median PFS and hazard ratio together with 95% confidence intervals were computed for each patient subgroup.
Result: Using backward model selection, a 2-gene signature (CDKN2A and E2F3) was derived. FIG. 1Q and table 4 are subgroup analysis results, high- and low-gene signature expression groups are defined by median signature score as cut-off.

Ribociclib: the Events reads like this: (high 2-gene signature (CDKN2A and E2F3) score) 30; (low 2-gene signature (CDKN2A and E2F3) score) 28. The “HR Across ARMCD” value is reported as 0.73 (0.46-1.16) (high 2-gene signature score) and 0.42 (0.26-0.66) (low 2-gene signature score).
